According to patent US11013696B2, “Lipids and lipid compositions for the delivery of active agents” (Novartis AG, priority 2013, dated 2021):

Tests used:
[1] = Percent encapsulation of mRNA in lipid nanoparticles (Quant-iT Ribogreen); format: physicochemical; conditions: Table 2; leptin mRNA in LNP with the cationic lipid
Summary of the method: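 LNPs made by T-junction mixing of ethanolic lipids (cationic lipid:DSPC:cholesterol:PEG lipid 40:10:38:2, N:P 4:1) with mRNA in citrate pH 5.8-6.0, then dialysed against PBS overnight at 4 °C. RiboGreen fluorescence (ex 480/em 520 nm) measured in TE ± 0.75% Triton X-100; encapsulation = (total − free)/total.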

[2] = Entrapment and RNA concentration of RSV-F replicon liposomes (Quant-iT RiboGreen); format: physicochemical
Experimental: RNA was encapsulated in liposomes made essentially by the method of Geall et al. (2012) PNAS vol. 109 (36): 14604-14609, Jeffs et al. (2005) Pharmaceutical Research 22 (3):362-372 and Maurer et al. (2001) Biophysical Journal, 80: 2310-2326 The liposomes were made of 10% DSPC (zwitterionic), 40% cationic lipid, 48% cholesterol and 2% PEG-conjugated DMG (2 kDa PEG). These proportions refer to the % moles in the total liposome.
Briefly, lipids were dissolved in ethanol (2 ml), a RNA replicon was dissolved in buffer (2 ml, 100 mM sodium citrate, pH 6) and these were mixed with 2 ml of buffer followed by 1 hour of equilibration. The mixture was then dialized overnight against 1×PBS. The resulting product contained liposomes, with ˜70-95% encapsulation efficiency. For in vitro and in vivo experiments formulations were diluted to the required RNA concentration with 1×PBS.
The percentage of encapsulated RNA and RNA concentration were determined by Quant-iT RiboGreen RNA reagent kit (Invitrogen), following manufacturer's instructions. The ribosomal RNA standard provided in the kit was used to generate a standard curve. Liposomes were diluted 10× or 100× in 1×TE buffer (from kit) before addition of the dye. Separately, liposomes were diluted 10× or 100× in 1×TE buffer containing 0.5% Triton X before addition of the dye (to disrupt the liposomes and thus to assay total RNA). Thereafter an equal amount of dye was added to each solution and then ˜180 μL of each solution after dye addition was loaded in duplicate into a 96 well tissue culture plate. The fluorescence (Ex 485 nm, Em 528 nm) was read on a microplate reader. All liposome formulations were dosed in vivo based on the encapsulated amount of RNA.
(§1) A self-replicating replicon encoding RSV F protein was administered to BALB/c mice, 8 animals per group, by bilateral intramuscular vaccinations (50 μL per leg) on days 0 and 21 with the replicon (0.1 and 1 ng) formulated as liposomes with the lipids described below. All liposomes tested were composed of 40% cationic lipid, 10% DSPC, 48% cholesterol and 2% PEG-DMG with similar amounts of RNA. The liposomes were all prepared using the same technique as described above.
(§2) % entrapment (% E), Concentration of RNA (Conc), particle size measured by DLS, and polydispersity reported by DLS of LNPs prepared with different cationic lipids

[3] = Particle size and polydispersity by DLS of RSV-F replicon LNPs; format: physicochemical
Experimental: as §1, §2

RSV F protein = experiment: RSV immunogenicity: IgG titers after two IM immunizations with vA375 RNA expressing RSV-F in LNPs; format: in vivo, BALB/c mice; conditions: IM days 0 and 21, two weeks after two immunizations
human leptin [4] = experiment: Human leptin in mouse plasma (ELISA) after IV tail vein injection of encapsulated leptin mRNA; format: in vivo; conditions: hLeptin, 0.2 mpk, ob/ob
Experimental: Human leptin in mouse plasma was measured by ELISA. Antibodies purchased from the R&D Systems duoset (Cat #DY398E, part #840279 for capture antibody and part #840280 for detection antibody) were reconstituted using PBS and titered, again using PBS. The capture antibody was coated at 4 ug/ml in 30 ul/well on a white Nunc® Maxisorp 384 well plate (Cat #460372). After an overnight incubation at room temperature the capture antibody was aspirated and the plate blocked for 2 hours at room temperature with 90 ul/well of KPL milk blocker (Cat #50-82-00). Once the incubation was completed the plate was aspirated and recombinant standards and samples were added to the plate at 30 ul/well for 2 hours at 37° C. while shaking at 600 rpm. Sample/standard dilutions were made using casein sample diluent. Washing/aspiration 3 times with 100 ul/well followed, using Teknova plate wash solution (Cat #P1192). Next, detection antibody was diluted using casein detection antibody diluent to 12.5 ng/ml and added at 30 ul/well for 2 hours room temperature. After this incubation, the plate was washed again and a solution of poly-streptavidin-HRP (Cat #21140) at a 1:1250 dilution in HRP dilution buffer was added to each well (30 ul/well) and incubated for 30 minutes room temperature. A final wash/aspiration removed the HRP solution and a chemiluminescent substrate was added at 30 ul/well (Cat #1859678 & 1859679). The plate was quickly read using a SpectramaxM5 plate reader with a 50 ms integration time. The dynamic range of the ELISA is from 100-2,000 […] (6.25-125 pM) of human leptin. The assay is applicable to plasma from mice, rats and cynomolgus monkeys.
Before the tail vein injection, mouse body weights were recorded and diet weighted, with mice grouped according to their body weights. Mice were prepared by warming them under a heating lamp for ˜2 minutes, with the mice about 12 inches from heat lamp. […]
On day 0, animals were weighed and sorted according to average body weight. Mice were dosed, and food intake (FI) was recorded, on each of days 1-7 and days 9, 11, and 16.

human leptin [5] = experiment: Human leptin in mouse plasma (ELISA) after subcutaneous injection of encapsulated leptin mRNA; format: in vivo; conditions: hLeptin, 0.2 mpk, ob/ob
Factor VII = experiment: Mouse Factor VII dosing and plasma Factor VII activity assay (FVII siRNA LNP, IV); format: in vivo; conditions: 0.03 mpk, XXX mice
Experimental: Female CD-1 mice were received from Harlan Labs and maintained on standard lab chow and water ad libitum. The animals weighed approximately 25 gr at time of dosing. Formulated Factor VII siRNA was administered as a single dose intravenously via the lateral tail vein. Approximately 48 hours after injection, the mice were euthanized by CO2 inhalation followed by exsanguination through the vena cava.
Plasma collected from injected mice was assayed for Factor VII enzyme activity using the Biophen FVII kit from Hyphen Biomedical (catalog number 221304). An assay standard curve was prepared using pooled plasma aliquots from the vehicle control animals. All samples were diluted to fall within the linear range of the standard curve and Factor VII activity relative to control plasma was reported.
Lipid nanoparticles comprising lipid compounds of formula (I) and the FVII siRNA duplex sequence listed above were tested in the Factor VII Activity Assay. The results of this assay are given in Table 34 below as a percent knock down of plasma Factor VII enzyme activity at a dose of 0.3 mg/kg and 0.03 mg/kg.

[6] = RSV-F replicon LNP prepared for 1st IM
[7] = RSV-F replicon LNP prepared for 2nd IM

## CCCCC/C=C\C/C=C\CCCCCCCCC(CCCOC(=O)CCC(=O)OC(CCCCCCCC)CCCCCCCC)OC(=O)OCCCN(C)C (stereo not drawn) [Example 58, (13Z,16Z)-4-(((3-(dimethylamino)propoxy)carbonyl)oxy)docosa-13,16-dien-1-yl heptadecan-9-yl succinate]
[1]
  % encapsulation mRNA Leptin: 90.2%
[2]; [6]
  % E (% entrapment): 87.48%
[2]; [7]
  % E (% entrapment): 87.03%
[3]; [6]
  PDI: 0.111
  Size: 139.4 nm
[3]; [7]
  PDI: 0.075
  Size: 137.1 nm
RSV F protein; 0.1 ng vA375 RNA
  Immunogenicity (2wp2, log10 IgG titers): 4.19 log10 IgG titers
RSV F protein; 1 ng vA375 RNA
  Immunogenicity (2wp2, log10 IgG titers): 4.26 log10 IgG titers

## CCCCCCCCCCCCC(CCC(=O)OC(COC(=O)CCCCCCCCC)COC(=O)CCCCCCCCC)OC(=O)OCCCN(C)CC (stereo not drawn) [Example 91, 2-((4-(((3-(ethyl(methyl)amino)propoxy)carbonyl)oxy)hexadecanoyl)oxy)propane-1,3-diyl bis(decanoate)]
[1]
  % encapsulation mRNA Leptin: 94.4%
Human leptin [4]
  Expression of protein following IV injection of encapsulated mRNA: 33.6 ng/mL
Human leptin [5]
  Expression of protein following SC injection of encapsulated mRNA: 3.5 ng/mL
Factor VII
  FVII knock-down following IV injection of encapsulated siRNA: 97%/0.03

## CCCCC/C=C\C/C=C\CCCCCCCC(=O)OCC(COC(=O)CCCCCCC/C=C\C/C=C\CCCCC)OC(=O)C(CCCCCCCCCCCC)OC(=O)OCCCN(C)C (stereo not drawn) [Example 98, (9Z,9′Z,12Z,12′Z)-2-((2-(((3-(dimethylamino)propoxy)carbonyl)oxy)tetradecanoyl)oxy)propane-1,3-diyl bis(octadeca-9,12-dienoate)]
[1]
  % encapsulation mRNA Leptin: 73.4%
[2]; [6]
  % E (% entrapment): 85.91%
[2]; [7]
  % E (% entrapment): 76.36%
[3]; [6]
  PDI: 0.07
  Size: 139.4 nm
[3]; [7]
  PDI: 0.065
  Size: 130.9 nm
RSV F protein; 0.1 ng vA375 RNA
  Immunogenicity (2wp2, log10 IgG titers): 4.28 log10 IgG titers
RSV F protein; 1 ng vA375 RNA
  Immunogenicity (2wp2, log10 IgG titers): 4.64 log10 IgG titers

## CCCCC/C=C\C/C=C\CCCCCCCC(=O)OCC(COC(=O)CCCCCCC/C=C\C/C=C\CCCCC)COC(=O)CCC(CCCCCCCCCCCC)OC(=O)OCCCN(C)C (stereo not drawn) [Example 105, (9Z,9′Z,12Z,12′Z)-2-(9-dodecyl-2-methyl-7,12-dioxo-6,8,13-trioxa-2-azatetradecan-14-yl)propane-1,3-diyl bis(octadeca-9,12-dienoate)]
[2]; [6]
  % E (% entrapment): 85.22%
[2]; [7]
  % E (% entrapment): 69.54%
[3]; [6]
  PDI: 0.107
  Size: 137.2 nm
[3]; [7]
  PDI: 0.123
  Size: 135.7 nm
RSV F protein; 0.1 ng vA375 RNA
  Immunogenicity (2wp2, log10 IgG titers): 4.21 log10 IgG titers
RSV F protein; 1 ng vA375 RNA
  Immunogenicity (2wp2, log10 IgG titers): 4.53 log10 IgG titers

## CCCCCCCCCCCCC(CCOC(=O)CCCCC(OCC(CCC)CCC)OCC(CCC)CCC)OC(=O)OCCCN(C)C (stereo not drawn) [Example 115, 3-(((3-(dimethylamino)propoxy)carbonyl)oxy)pentadecyl 6,6-bis((2-propylpentyl)oxy)hexanoate]
[1]
  % encapsulation mRNA Leptin: 97.8%
[2]; [6]
  % E (% entrapment): 95.76%
[2]; [7]
  % E (% entrapment): 95.78%
[3]; [6]
  PDI: 0.075
  Size: 141.3 nm
[3]; [7]
  PDI: 0.065
  Size: 130.9 nm
RSV F protein; 0.1 ng vA375 RNA
  Immunogenicity (2wp2, log10 IgG titers): 1.91 log10 IgG titers
RSV F protein; 1 ng vA375 RNA
  Immunogenicity (2wp2, log10 IgG titers): 3.31 log10 IgG titers

## CCCCCCCCCCCCC(CCCOC(=O)CCCCC(COC(=O)CCCCCCC)COC(=O)CCCCCCC)OC(=O)C1(C)CCN(C)CC1 (stereo not drawn) [Example 131, 2-(5-((4-((1,4-dimethylpiperidine-4-carbonyl)oxy)hexadecyl)oxy)-5-oxopentyl)propane-1,3-diyl dioctanoate]
[1]
  % encapsulation mRNA Leptin: 96.4%
[2]; [6]
  % E (% entrapment): 85.31%
[2]; [7]
  % E (% entrapment): 80.31%
[3]; [6]
  PDI: 0.119
  Size: 138.3 nm
[3]; [7]
  PDI: 0.07
  Size: 143.5 nm
RSV F protein; 0.1 ng vA375 RNA
  Immunogenicity (2wp2, log10 IgG titers): 4.43 log10 IgG titers
RSV F protein; 1 ng vA375 RNA
  Immunogenicity (2wp2, log10 IgG titers): 5.22 log10 IgG titers
